According to ChEMBL document CHEMBL1201862, “PubChem BioAssay data set” (2004):
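Dose response: 5 concentrations. Exposure: 48 h. Format: 96-well plates. Endpoint: linear interpolation; highest concentration if not reached. GI50 marks 50% less growth.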 Activity calls are given as the source filed them. Rule as the data show it: active = GI50 up to about 1.1 µM and inactive = higher.

What was measured:
Experiment in all cases: NCI-60 cell line screen, 48 h
SK-MEL-28 = test system: SK-MEL-28
SF-295 = test system: SF-295
OVCAR-8 = test system: OVCAR-8
SW-620 = test system: SW-620
SK-MEL-2 = test system: SK-MEL-2
SN12C = test system: SN12C
TK-10 = test system: TK-10
SNB-19 = test system: SNB-19
NCI-H460 = test system: NCI-H460
KM12 = test system: KM12
NCI/ADR-RES = test system: NCI/ADR-RES
UO-31 = test system: UO-31
UACC-62 = test system: UACC-62
ACHN = test system: ACHN
MDA-MB-435 = test system: MDA-MB-435
T47D = test system: T47D
MDA-MB-231 = test system: MDA-MB-231
A549 = test system: A549
RPMI-8226 = test system: RPMI-8226
SNB-75 = test system: SNB-75

| Structure (SMILES) | GI50 (SK-MEL-28) | GI50 (SF-295) | GI50 (OVCAR-8) | GI50 (SW-620) | GI50 (SK-MEL-2) | GI50 (SN12C) | GI50 (TK-10) | GI50 (SNB-19) | GI50 (NCI-H460) | GI50 (KM12) | GI50 (NCI/ADR-RES) | GI50 (UO-31) | GI50 (UACC-62) | GI50 (ACHN) | GI50 (MDA-MB-435) | GI50 (T47D) | GI50 (MDA-MB-231) | GI50 (A549) | GI50 (RPMI-8226) | GI50 (SNB-75) |
| --- | --- | --- | --- | --- | --- | --- | --- | --- | --- | --- | --- | --- | --- | --- | --- | --- | --- | --- | --- | --- |
| NC(=O)/N=C(\N)NC(=O)c1ccccc1 | > 100 µM (inactive) | > 100 µM (inactive) | > 100 µM (inactive) | > 100 µM (inactive) | > 100 µM (inactive) | > 100 µM (inactive) | > 100 µM (inactive) | > 100 µM (inactive) | > 100 µM (inactive) | > 100 µM (inactive) | > 100 µM (inactive) | > 100 µM (inactive) | > 100 µM (inactive) | > 100 µM (inactive) | > 100 µM (inactive) | > 100 µM (inactive) | > 100 µM (inactive) | > 100 µM (inactive) |  |  |
| O=C1c2ccccc2C(=O)c2c1ccc(C(=O)O)c2-c1ccc2ccccc2c1 | 40.2 µM (inactive) | 28.5 µM (inactive) | 33.5 µM (inactive) | 29.4 µM (inactive) | 19.1 µM (inactive) | 29.1 µM (inactive) | 61.2 µM (inactive) | 34.7 µM (inactive) | 30.1 µM (inactive) | 27 µM (inactive) | 30.8 µM (inactive) | 21.2 µM (inactive) | 18.2 µM (inactive) | 30.8 µM (inactive) | 23.8 µM (inactive) | 2.22 µM (inactive) | 23.2 µM (inactive) | 30.5 µM (inactive) | 27.7 µM (inactive) |  |
| COc1cc2c(c(N)c1OC)C(=O)/C(=C/c1cc(C)c(O)c(C)c1)C2 |  | 0.0562 µM (active) | < 0.01 µM (active) | < 0.01 µM (active) |  | < 0.01 µM (active) | > 76 µM (inactive) | < 0.01 µM (active) | < 0.01 µM (active) | < 0.01 µM (active) | 0.0104 µM (active) |  | < 0.01 µM (active) |  | < 0.01 µM (active) | > 100 µM (inactive) | 0.0141 µM (active) | < 0.01 µM (active) | < 0.01 µM (active) |  |
| O=C(NC(C(F)(F)F)(C(F)(F)F)P(=O)(Cc1ccccc1)Cc1ccccc1)C(C(F)(F)F)C(F)(F)F | 25.6 µM (inactive) | 20.7 µM (inactive) | 22.3 µM (inactive) | 44.4 µM (inactive) | 26.4 µM (inactive) | 17.7 µM (inactive) | 21.8 µM (inactive) | 27.7 µM (inactive) | 27.7 µM (inactive) | 19.5 µM (inactive) | 17.9 µM (inactive) |  | 27.2 µM (inactive) | 19.7 µM (inactive) | 17.4 µM (inactive) | 34.9 µM (inactive) | 19.8 µM (inactive) | 25.9 µM (inactive) | 25.2 µM (inactive) |  |
| O=P1(N(CCCl)CCCl)Oc2c(Cl)cc(Cl)c(Cl)c2Cc2c(Cl)c(Cl)cc(Cl)c2O1 | > 100 µM (inactive) | 22.7 µM (inactive) | 55.1 µM (inactive) | 47.4 µM (inactive) | 22 µM (inactive) | 61.9 µM (inactive) | 25 µM (inactive) |  | 25.2 µM (inactive) | 42 µM (inactive) | 45 µM (inactive) | 48.4 µM (inactive) | 48.3 µM (inactive) | 51.1 µM (inactive) | 60.5 µM (inactive) | > 100 µM (inactive) | 42.4 µM (inactive) | 38.5 µM (inactive) | 64.3 µM (inactive) | > 100 µM (inactive) |
| COc1cc(Oc2nc3ccc(C(F)(F)F)cc3nc2-c2ccccc2)cc(OC)c1OC | 33.9 µM (inactive) | 9.48 µM (inactive) | 45.8 µM (inactive) | > 10 µM (inactive) |  | 37 µM (inactive) | 30.1 µM (inactive) |  | 34 µM (inactive) | 66.2 µM (inactive) | > 100 µM (inactive) | > 100 µM (inactive) | 11 µM (inactive) | 11.6 µM (inactive) | 30.4 µM (inactive) | 54.7 µM (inactive) | 23 µM (inactive) | 17.1 µM (inactive) | 36.8 µM (inactive) | 8.75 µM (inactive) |
| CS(=O)(=O)OCC1CCCCCCCCCCC12SCCCS2 (centres undefined) | > 100 µM (inactive) | > 100 µM (inactive) | > 100 µM (inactive) | > 100 µM (inactive) | > 100 µM (inactive) | > 100 µM (inactive) | > 100 µM (inactive) | > 100 µM (inactive) | > 100 µM (inactive) | > 100 µM (inactive) | > 100 µM (inactive) | > 100 µM (inactive) | > 100 µM (inactive) | > 100 µM (inactive) | > 100 µM (inactive) | > 100 µM (inactive) | > 100 µM (inactive) | > 100 µM (inactive) |  |  |
| Cc1c(-c2ccccc2)c(C#N)c2nnn(-c3cccc(Cl)c3)c(=O)n12 | > 100 µM (inactive) | 39.6 µM (inactive) | 53.5 µM (inactive) | 46.8 µM (inactive) | 27.7 µM (inactive) | 71.8 µM (inactive) | > 100 µM (inactive) |  | > 100 µM (inactive) | 55.8 µM (inactive) | > 100 µM (inactive) |  | > 100 µM (inactive) | 53.2 µM (inactive) | > 100 µM (inactive) | 60.5 µM (inactive) | 25.1 µM (inactive) |  | 42.5 µM (inactive) | 31.2 µM (inactive) |
| CC1CC(=O)Nc2ccccc2N1C(=O)C1CC1 (centres undefined) | > 100 µM (inactive) | > 100 µM (inactive) | > 100 µM (inactive) | > 100 µM (inactive) | > 100 µM (inactive) | > 100 µM (inactive) | > 100 µM (inactive) | > 100 µM (inactive) | > 100 µM (inactive) | > 100 µM (inactive) |  | > 100 µM (inactive) |  | > 100 µM (inactive) | > 100 µM (inactive) | > 100 µM (inactive) | > 100 µM (inactive) | > 100 µM (inactive) | > 100 µM (inactive) |  |
| COc1ccc(NC(=S)N/N=C\c2ccc(NC(C)=O)cc2)cc1 | > 100 µM (inactive) | > 100 µM (inactive) |  | > 100 µM (inactive) | > 100 µM (inactive) | > 100 µM (inactive) | > 100 µM (inactive) | > 100 µM (inactive) | > 100 µM (inactive) | > 100 µM (inactive) |  | > 100 µM (inactive) | > 100 µM (inactive) | > 100 µM (inactive) | > 100 µM (inactive) | > 100 µM (inactive) | > 100 µM (inactive) | > 100 µM (inactive) | > 100 µM (inactive) | > 100 µM (inactive) |
| CCCCP(CCCC)(CCCC)=C(C(=O)OC)C(C(=O)OC)=C1SC(C(=O)OC)=C(C(=O)OC)S1 | 15.5 µM (inactive) | 19.3 µM (inactive) | 20.7 µM (inactive) | 23.4 µM (inactive) | 26.2 µM (inactive) | 15.5 µM (inactive) | 38.6 µM (inactive) | 20.3 µM (inactive) | 16 µM (inactive) |  | > 10 µM (inactive) | 20.3 µM (inactive) | 14.1 µM (inactive) | 22.9 µM (inactive) | 14.8 µM (inactive) | 13.5 µM (inactive) | 17.9 µM (inactive) | 17.6 µM (inactive) | 63.2 µM (inactive) | 17.5 µM (inactive) |
| Cc1ccc(OCC2=NN3C(=O)/C(=C\c4ccc([N+](=O)[O-])o4)SC3N2)cc1 (centres undefined) | 12.7 µM (inactive) | 14.8 µM (inactive) | 3.66 µM (inactive) | 2.93 µM (inactive) | 15.7 µM (inactive) | 16.9 µM (inactive) | 16.5 µM (inactive) | 17.8 µM (inactive) | 18.7 µM (inactive) | 15.8 µM (inactive) | 9.04 µM (inactive) | 15.4 µM (inactive) |  | 1.71 µM (inactive) | 5.47 µM (inactive) | 2.17 µM (inactive) | 12.4 µM (inactive) | 19 µM (inactive) | 2.16 µM (inactive) | 15.9 µM (inactive) |
| CC#CC#C/C(=C/C=CC(=O)OC)SC | > 100 µM (inactive) | > 100 µM (inactive) | > 100 µM (inactive) | > 100 µM (inactive) | > 100 µM (inactive) | > 100 µM (inactive) | > 100 µM (inactive) |  | > 100 µM (inactive) | > 100 µM (inactive) | > 100 µM (inactive) |  | > 100 µM (inactive) |  | > 100 µM (inactive) | > 100 µM (inactive) | > 100 µM (inactive) | > 100 µM (inactive) |  | 39.4 µM (inactive) |
| O=C(O)CCC(=O)Nc1ccc2c(c1)S(=O)(=O)N(CC(=O)O)C2=O | > 100 µM (inactive) | > 100 µM (inactive) | > 100 µM (inactive) | > 100 µM (inactive) | > 100 µM (inactive) | > 100 µM (inactive) | > 100 µM (inactive) | > 100 µM (inactive) | > 100 µM (inactive) | 21.9 µM (inactive) | > 100 µM (inactive) | > 100 µM (inactive) | > 100 µM (inactive) | > 100 µM (inactive) | > 100 µM (inactive) | > 100 µM (inactive) | > 100 µM (inactive) | > 100 µM (inactive) | > 100 µM (inactive) |  |
| C#Cc1cccc(N2C(=O)CCC2=O)c1 | 18.1 µM (inactive) | 15.6 µM (inactive) | 18.5 µM (inactive) | 5.61 µM (inactive) | 19.9 µM (inactive) | 18.5 µM (inactive) | 16.2 µM (inactive) | 31.4 µM (inactive) | 27.5 µM (inactive) | 13.6 µM (inactive) |  | 17.7 µM (inactive) | 18.2 µM (inactive) | 16.7 µM (inactive) | 17.3 µM (inactive) | 18.9 µM (inactive) | 12.2 µM (inactive) | 21.4 µM (inactive) | 2.49 µM (inactive) | 13.6 µM (inactive) |
